Test results: article PMC8769072, “Proteome‐scale mapping of binding sites in the unstructured regions of the human proteome” (Molecular Systems Biology, 2022)
Where no end group is shown, it is not given here.

Assays:
[1] = target: T1, TLN1 PTB (Homo sapiens, UniProt Q9Y490); assay: FP competition, TLN1 PTB; assay type: binding
T1 construct: Q9Y490; TLN1; PTB; 309; pHH0103; Sidhu Lab (PMID: 33438817); made in house; host or cells: bacteria (E. coli BL21(DE3) gold is named only for the phage-selection preparations)

[2] = target: T2, KPNA4 ARM (Homo sapiens, UniProt O00629); assay: FP competition, KPNA4 ARM major pocket (FITC-Myc probe); assay type: binding; details: for IC50: FP competition with FITC-Myc320-328 probe for the major pocket, 50 mM KPO4 pH 7.5, n = 3 technical replicates; for Kd: Fig 5D, FP competition with FITC-Myc320-328, major groove, n = 3
T2 construct: O00629; KPNA4; Arm; 68; 487; pETM33/pETM41; Genescript; made in house; host or cells: bacteria (E. coli BL21(DE3) gold is named only for the phage-selection preparations)
From the text: (§1) Like other importins, KPNA4 has two distinct NLS‐binding pockets on the surface of an armadillo (ARM) repeat fold (major pocket, ARM 2–4; minor pocket, ARM 6–8; Fig 5B) (Smith et al, [2018]). Bipartite NLSs are usually 17–19 amino acids long and engage both pockets. Monopartite NLSs are short basic stretches, divided into five classes (Kosugi et al, [2009]): class I KR[KR]R or K[KR]RK, class II [PR]xxKR[^DE][KR] (where ^ indicates “not”), class III KRx[WFY]xxAF, class IV [RP]xxKR[KR][^DE], and class V LGKR[KR][WFY]. The class I and class II motifs preferentially interact with the major pocket (Kosugi et al, [2009]). In contrast, class III and class IV NLSs preferentially bind to the minor pocket. Using KPNA4 as a bait against the HD2 P8 library we identified 33 peptides found in 32 proteins. Of the 26 proteins for which information was available, 22 proteins were annotated as having nuclear or nucleolar localization in the UniProt database. To gain additional information we combined the data generated for KPNA4 by screening against the complete P8 HD2 library, with the results generated using two relevant sublibraries (the cytoplasmic and nuclear, and nuclear sublibraries) resulting in a set of 92 peptides containing NLS‐like sequences found in 76 proteins. Using these peptides we could generate consensus motifs that matched four of the previously reported NLS classes (Fig 5A; class I‐IV). […] Three peptides bound only to the major pocket. Eight peptides with class III motif and one KRxH‐containing peptide only bound to the minor pocket. Five peptides outcompeted both probe peptides, which may be explained by the amino acid sequence matching both class II and class III motifs (e.g., 1135‐ PSPKRKL ‐1139 in ZNF532; Fig 5), and possibly by cross specificity of the two binding pockets.

[3] = target: T2, KPNA4 ARM; assay: FP competition, KPNA4 ARM minor pocket (FITC-NCOR2 probe); assay type: binding
From the text: as §1

[4] = target: T3, KEAP1 Kelch (Homo sapiens, UniProt Q14145); assay: FP competition, KEAP1 Kelch; assay type: binding
T3 construct: Q14145; KEAP1; Kelch; 321; 609; pETM33; Genescript; made in house; host or cells: bacteria (E. coli BL21(DE3) gold is named only for the phage-selection preparations)

[5] = system: immobilized GST-tagged bait protein domains; assay: ProP-PD phage selections (HD2 P8, sublibraries, HD2 P3, HD1 P8) with NGS and confidence level; assay type: binding, human; details: bait CRK_SH3_1_P46108_124_198; library HD2; benchmarking set of validated motif instances; TRUE = motif instance recovered in the ProP-PD selection
[6] = target: T4, MDM2 SWIB (Homo sapiens, UniProt Q00987); assay: FP competition, MDM2 SWIB; assay type: binding
T4 construct: Q00987; MDM2; SWIB; 17; 125; pETM33; Genescript; His-GST (cleaved yes); made in house; host or cells: bacteria (E. coli BL21(DE3) gold is named only for the phage-selection preparations)

DLIFTDSKLYIPLE-NH2 [TPTE]
IC50 [1]: 15 µM

DLKRRLDSITSSQSSA-NH2 [KDR]
IC50 [2]: 22000 nM | Kd [2]: 14 µM | IC50 [3]: 24 µM

EDSIEPPHKRLCLSSE-NH2 [DMTF1]
IC50 [2]: 130 nM | Kd [2]: 0.075 µM

ELKRKLEQEQKLVEVL-NH2 [MKL2]
IC50 [3]: 36 µM

ERENPSKRSRIERDID-NH2 [CTDSPL2]
IC50 [2]: 1900 nM

FPTDERSWVYSPLHYS-NH2 [PIP5K1C]
IC50 [1]: 0.42 µM | Ki ([1]; Fig 3C, FP competition with FITC-PIP5K1C probe, triplicates): 66 nM

GFDAVTGEFTGMPEQW-NH2 [PAK1]
IC50 [4]: 44 µM | motif_found [5]: FALSE

GFEAQWAALENKSKQR [NUMB]
IC50 [6]: 130 µM

GKKRTFDETVSTYVPL-NH2 [TPX2]
IC50 [3]: 0.41 µM | Kd ([3]; read-out: KD (Fig 5D)): 47 nM

GVKRTYSEVYPGQQYL-NH2 [ZMIZ2]
IC50 [3]: 0.43 µM

IDPSTGERFPVTDAVN-NH2 [PLEC 4459-4474]
IC50 [4]: 6.1 µM

IPEKKQRLEEATTICL-NH2 [AFF2]
IC50 [2]: 2300 nM | IC50 [3]: 3800 µM

PFKRPHSTISDSSTSS-NH2 [PLEKHG4B]
IC50 [3]: 3.6 µM

PKRTYDMMEGRVGRAI-NH2 [NCOR2]
IC50 [3]: 0.12 µM

SLAPVKRTYEQMEFPL-NH2 [ADNP]
IC50 [3]: 1.3 µM

STMKRKHDEIQRSLPV-NH2 [ZBED9]
IC50 [3]: 2.4 µM

THFAELWGHLDHTMFF [RNF115]
IC50 [6]: 9 µM | Ki ([6]; Fig 3C, FP competition with FITC-p53 probe, triplicates): 174 nM

TPEDDRSFQTVWATVF [KIAA1671]
IC50 [6]: 73 µM

VEPETKRLKLAASEDH-NH2 [ZRANB3]
IC50 [2]: 240 nM

VGPLTPLWTYPATAAG-NH2 [NYAP1]
IC50 [1]: 62 µM

YDPVTGEWKSLAKLPE-NH2 [KLHL24]
IC50 [4]: 80 µM
